Test results as given in US4153710A, “N-(4-[2-(pyrazole-1-carbonamide)-ethyl]-benzenesulphonyl)-urea” (Starogardzkie Zaklady Farmaceutyczne POLFA, priority 1976, dated 1979).

What was measured:
[1] = Oral toxicity in rats (LD50); conditions: rat, in vivo
[2] = tested on: oxygen consumption in mitochondria of a rat's liver; test: Oxygen consumption of rat liver mitochondria; assay type: biochemical
Procedure: 2-oxoglutaran 2 mM, ADP 1 mM, mitochondria | protein 4 mg/m. […] The

insulin concentration [3] = test: Insulin in normal men after a meal (Table 8); assay type: in vivo; conditions: for Insulin concentration: normal men, meal, oral 10 mg
Procedure: (§1) When administered to normal men volunteers it has been stated that 60 minutes after the administration of SPC-5002 a 5 mg oral dose causes the decrease in blood-glucose of 28% in comparision to the starting value and after 90 minutes it reaches 33% (Table 7). Whereas Glibornuride employed in a dose 2.5 times as big on peak of its activity decreases the glucose blood level only of 19%. It can clearly be noticed that there is a positive correlation between the glycemic and insulin level curves. Both examined preparations cause a significant decrease in free fatty acids in blood. […] 60 and 90 minutes after the SPC-5002 administration, the blood-glycose level is decreased to 33 and 52% while in the Placebo group it is maintained in the range of 13-14%.
The comparison of glucose concentration changes in voluntary-normal men
eaten a meal and the oral administration of 10 mg of SPC-5002 or Placebo

insulin concentration [4] = test: Insulin in normal men volunteers (Table 7); assay type: in vivo; conditions: oral 5 mg SPC-5002 or 12.5 mg Glibornuride
Procedure: as §1
The comparison of glucose, insulin and free fatty acids concentration in
normal men after the oral administration of 5 mg of SPC-5002 or 12.5 mg

**Q.** What does the source list for `Cc1ccn(C(=O)NCCc2ccc(S(=O)(=O)NC(=O)NC3CCCCC3)cc2)n1` [SPC-5002, N-{4-[2-(3-methylpyrazole-1-carbonamide)-ethyl]-benzenesulphonyl}-N'-cyclohexylourea]?
**A.** LD50 [1]: > 15000 mg/kg; effect on oxidation ([2]; 0.05 nM): no effect; % of inhibition, oxygen consumption ([2]; concentration 0.05 n M): 0%; % of inhibition, oxygen consumption ([2]; concentration 0.1 n M): 12%; % of inhibition, oxygen consumption ([2]; concentration 0.3 n M): 21%; % of inhibition, oxygen consumption ([2]; concentration 0.5 n M): 34%; % of inhibition, oxygen consumption ([2]; concentration 0.7 n M): 47%; % of inhibition, oxygen consumption ([2]; concentration 1.0 n M): 69%; Ki ([2]; rat liver mitochondria): 750 µM; insulin concentration relative to placebo group (insulin concentration [3]; normal men after meal, 60 minutes): twice as high as that in the placebo group; Insulin concentration (insulin concentration [3]; 0 mins (empty stomach)): 7 μU/cc; Insulin concentration (insulin concentration [3]; 30 mins): 50 μU/cc; Insulin concentration (insulin concentration [3]; 60 mins): 55 μU/cc; Insulin concentration (insulin concentration [3]; 90 mins): 17 μU/cc; Insulin concentration (insulin concentration [3]; 120 mins): 8 μU/cc; Insulin concentration (insulin concentration [3]; 180 mins): 8 μU/cc; Insulin concentration (insulin concentration [4]; 0 mins (empty stomach)): 4.0 μU/cc; Insulin concentration (insulin concentration [4]; 30 mins): 9.2 μU/cc; Insulin concentration (insulin concentration [4]; 60 mins): 13.5 μU/cc; Insulin concentration (insulin concentration [4]; 90 mins): 7.3 μU/cc; Insulin concentration (insulin concentration [4]; 120 mins): 5.0 μU/cc; Insulin concentration (insulin concentration [4]; 180 mins): 3.2 μU/cc
